{"source": "patent EP0510151B1", "about": "“IMPROVED ANTI-PLAQUE COMPOSITIONS COMPRISING A COMBINATION OF MORPHOLINOAMINO ALCOHOL AND ANTI-MICROBIAL AGENT” (Pharmacia AB, priority 1990, dated 1992)", "key": {"Streptococcus mutans": {"test_system": "Streptococcus mutans", "assay": "Minimal inhibitory concentration (MIC) by broth dilution and checkerboard titration of combinations", "type": "cell-based", "method": "(§1) The minimal inhibitory concentration (MIC) of the test compound is the minimum concentration of compound required to inhibit growth of the test microorganism. The MIC is determined by serially diluting the test solution through tubes of sterile broth. The tubes are inoculated and incubated at 37°C for 48 hours. At the end of the incubation time, growth is checked macroscopically. The lowest concentration of test compound to inhibit growth is the MIC. This technique is used to assess antimicrobial activity of combinations. The checkerboard is the pattern found by multiple combinations of two agents in concentrations equal to, above and below their minimal inhibitory concentration for the microorganism tested against. The checkerboard consists of columns which contain the same amount of one agent which is diluted along the x-axis and rows which each contain the same amount of the second agent diluted along the y-axis. Thus each tube is a unique combination of the two agents. […] A method for illustrating the effect of the combination of the two agents is obtained by plotting the MIC's of each agent alone and the MIC's for these agents in combination. Antimicrobial synergy is indicated if the MIC's for the agents in combination are lower than the MIC's for the agents alone."}, "[1]": {"test_system": "Bacteroides melaninogenicus", "assay": "Minimal inhibitory concentration (MIC) by broth dilution and checkerboard titration of combinations", "type": "cell-based", "method": "as §1"}, "[2]": {"details": "S. mutans, agent alone (other agent 0), Table VII"}, "[3]": {"details": "B. melaninogenicus, agent alone (other agent 0), Table VII"}, "[4]": {"details": "S. mutans, agent alone (other agent 0), second table of Example XI, comparative"}, "[5]": {"details": "B. melaninogenicus, agent alone (other agent 0), second table of Example XI, comparative"}, "[6]": {"details": "S. mutans, agent alone (other agent 0), Table IX"}, "[7]": {"details": "S. mutans, agent alone (other agent 0), Table X"}, "[8]": {"details": "S. mutans, agent alone (other agent 0), Table XI, comparative"}, "[9]": {"details": "B. melaninogenicus, agent alone (other agent 0), Table IX"}, "[10]": {"details": "B. melaninogenicus, agent alone (other agent 0), Table X"}, "[11]": {"details": "B. melaninogenicus, agent alone (other agent 0), Table XI, comparative"}}, "data": [{"smiles": "CCCCCCCCCCCCOCC(O)CO", "note": "(racemic) [1-0-dodecyl-rac-glycerol, reference compound]", "values": [{"measurement": "Minimum Inhibitory Concentration", "setting": "Streptococcus mutans; [2]", "value": 10, "unit": "miligrams/liter"}, {"measurement": "Minimum Inhibitory Concentration", "setting": "Streptococcus mutans; S. mutans, in combination with 4 miligrams/liter morpholinoamino alcohol HCl", "value": 6, "unit": "miligrams/liter"}, {"measurement": "Minimum Inhibitory Concentration", "setting": "Streptococcus mutans; S. mutans, in combination with 100 miligrams/liter morpholinoamino alcohol HCl", "value": 2, "unit": "miligrams/liter"}, {"measurement": "Minimum Inhibitory Concentration", "setting": "[1]; [3]", "value": 10, "unit": "miligrams/liter"}, {"measurement": "Minimum Inhibitory Concentration", "setting": "[1]; B. melaninogenicus, in combination with 4 miligrams/liter morpholinoamino alcohol HCl", "value": 6, "unit": "miligrams/liter"}, {"measurement": "Minimum Inhibitory Concentration", "setting": "[1]; B. melaninogenicus, in combination with 20 miligrams/liter morpholinoamino alcohol HCl", "value": 2, "unit": "miligrams/liter"}]}, {"smiles": "OCc1ccc(Cl)cc1Cl", "note": "[2,4-dichloro-alcohol, 2,4-dichlorobenzyl alcohol, reference compound]", "values": [{"measurement": "Minimum Inhibitory Concentration", "setting": "Streptococcus mutans; [4]", "value": 50, "unit": "milligrams/liter"}, {"measurement": "Minimum Inhibitory Concentration", "setting": "Streptococcus mutans; S. mutans, in combination with 50 milligrams/liter morpholinoamino alcohol HCl, the 12th table", "value": 50, "unit": "milligrams/liter"}, {"measurement": "Minimum Inhibitory Concentration", "setting": "Streptococcus mutans; S. mutans, in combination with 100 milligrams/liter morpholinoamino alcohol HCl, the 12th table", "value": 50, "unit": "milligrams/liter"}, {"measurement": "Minimum Inhibitory Concentration", "setting": "[1]; [5]", "value": 100, "unit": "milligrams/liter"}, {"measurement": "Minimum Inhibitory Concentration", "setting": "[1]; B. melaninogenicus, in combination with 50 milligrams/liter morpholinoamino alcohol HCl, the 12th table", "value": 100, "unit": "milligrams/liter"}, {"measurement": "Minimum Inhibitory Concentration", "setting": "[1]; B. melaninogenicus, in combination with 100 milligrams/liter morpholinoamino alcohol HCl, the 12th table", "value": 100, "unit": "milligrams/liter"}]}, {"smiles": "CCCC(CCC)CCCC1COCCN1CCO.Cl", "note": "(stereo not drawn) [3-(4-propylheptyl)-4-(2-hydroxyethyl) morpholine hydrochloride]", "values": [{"measurement": "Minimum Inhibitory Concentration", "setting": "Streptococcus mutans; S. mutans (ATCC 2517S), agent alone (other agent 0), Table VIII", "value": 200, "unit": "milligrams/liter"}, {"measurement": "Minimum Inhibitory Concentration", "setting": "Streptococcus mutans; [6]", "value": 200, "unit": "milligrams/liter"}, {"measurement": "Minimum Inhibitory Concentration", "setting": "Streptococcus mutans; [2]", "value": 200, "unit": "miligrams/liter"}, {"measurement": "Minimum Inhibitory Concentration", "setting": "Streptococcus mutans; [7]", "value": 200, "unit": "milligrams/liter"}, {"measurement": "Minimum Inhibitory Concentration", "setting": "Streptococcus mutans; [8]", "value": 200, "unit": "milligrams/liter"}, {"measurement": "Minimum Inhibitory Concentration", "setting": "Streptococcus mutans; [4]", "value": 200, "unit": "milligrams/liter"}, {"measurement": "Minimum Inhibitory Concentration", "setting": "Streptococcus mutans; S. mutans, in combination with 0.25 milligrams/liter hexitidine (row with 50 morpholinoamino alcohol HCl)", "value": 50, "unit": "milligrams/liter"}, {"measurement": "Minimum Inhibitory Concentration", "setting": "Streptococcus mutans; S. mutans, in combination with 0.25 milligrams/liter hexitidine (row with 100 morpholinoamino alcohol HCl)", "value": 100, "unit": "milligrams/liter"}, {"measurement": "Minimum Inhibitory Concentration", "setting": "Streptococcus mutans; S. mutans, in combination with 0.5 milligrams/liter domiphen bromide", "value": 100, "unit": "milligrams/liter"}, {"measurement": "Minimum Inhibitory Concentration", "setting": "Streptococcus mutans; S. mutans, in combination with 1.0 milligrams/liter domiphen bromide", "value": 50, "unit": "milligrams/liter"}, {"measurement": "Minimum Inhibitory Concentration", "setting": "Streptococcus mutans; S. mutans, in combination with 2 miligrams/liter 1-0-dodecyl-rac-glycerol", "value": 100, "unit": "miligrams/liter"}, {"measurement": "Minimum Inhibitory Concentration", "setting": "Streptococcus mutans; S. mutans, in combination with 6 miligrams/liter 1-0-dodecyl-rac-glycerol", "value": 4, "unit": "miligrams/liter"}, {"measurement": "Minimum Inhibitory Concentration", "setting": "Streptococcus mutans; S. mutans, in combination with 10 milligrams/liter amyl-m-cresol (row with 50 morpholinoamino alcohol HCl)", "value": 50, "unit": "milligrams/liter"}, {"measurement": "Minimum Inhibitory Concentration", "setting": "Streptococcus mutans; S. mutans, in combination with 10 milligrams/liter amyl-m-cresol (row with 100 morpholinoamino alcohol HCl)", "value": 100, "unit": "milligrams/liter"}, {"measurement": "Minimum Inhibitory Concentration", "setting": "Streptococcus mutans; S. mutans, in combination with 50 milligrams/liter 2, 4-dichloro-alcohol (row with 50 morpholinoamino alcohol HCl)", "value": 50, "unit": "milligrams/liter"}, {"measurement": "Minimum Inhibitory Concentration", "setting": "Streptococcus mutans; S. mutans, in combination with 50 milligrams/liter 2, 4-dichloro-alcohol (row with 100 morpholinoamino alcohol HCl)", "value": 100, "unit": "milligrams/liter"}, {"measurement": "Minimum Inhibitory Concentration", "setting": "Streptococcus mutans; S. mutans, in the absence of the dodecyl glycerol", "value": 200, "unit": "milligrams per liter"}, {"measurement": "Minimum Inhibitory Concentration", "setting": "[1]; B. melaninogenicus (J18M2), agent alone (other agent 0), Table VIII", "value": 200, "unit": "milligrams/liter"}, {"measurement": "Minimum Inhibitory Concentration", "setting": "[1]; B. melaninogenicus (J18M2), in combination with 0.003 milligrams/liter cetyl pyridinium chloride", "value": 100, "unit": "milligrams/liter"}, {"measurement": "Minimum Inhibitory Concentration", "setting": "[1]; B. melaninogenicus (J18M2), in combination with 0.006 milligrams/liter cetyl pyridinium chloride", "value": 50, "unit": "milligrams/liter"}, {"measurement": "Minimum Inhibitory Concentration", "setting": "[1]; [9]", "value": 200, "unit": "milligrams/liter"}, {"measurement": "Minimum Inhibitory Concentration", "setting": "[1]; [3]", "value": 200, "unit": "miligrams/liter"}, {"measurement": "Minimum Inhibitory Concentration", "setting": "[1]; [10]", "value": 200, "unit": "milligrams/liter"}, {"measurement": "Minimum Inhibitory Concentration", "setting": "[1]; [11]", "value": 200, "unit": "milligrams/liter"}, {"measurement": "Minimum Inhibitory Concentration", "setting": "[1]; [5]", "value": 200, "unit": "milligrams/liter"}, {"measurement": "Minimum Inhibitory Concentration", "setting": "[1]; B. melaninogenicus, in combination with 0.125 milligrams/liter hexitidine", "value": 100, "unit": "milligrams/liter"}, {"measurement": "Minimum Inhibitory Concentration", "setting": "[1]; B. melaninogenicus, in combination with 0.25 milligrams/liter hexitidine", "value": 50, "unit": "milligrams/liter"}, {"measurement": "Minimum Inhibitory Concentration", "setting": "[1]; B. melaninogenicus, in combination with 2 miligrams/liter 1-0-dodecyl-rac-glycerol", "value": 20, "unit": "miligrams/liter"}, {"measurement": "Minimum Inhibitory Concentration", "setting": "[1]; B. melaninogenicus, in combination with 2.5 milligrams/liter amyl-m-cresol", "value": 100, "unit": "milligrams/liter"}, {"measurement": "Minimum Inhibitory Concentration", "setting": "[1]; B. melaninogenicus, in combination with 6 miligrams/liter 1-0-dodecyl-rac-glycerol", "value": 4, "unit": "miligrams/liter"}, {"measurement": "Minimum Inhibitory Concentration", "setting": "[1]; B. melaninogenicus, in combination with 6.25 milligrams/liter domiphen bromide", "value": 100, "unit": "milligrams/liter"}, {"measurement": "Minimum Inhibitory Concentration", "setting": "[1]; B. melaninogenicus, in combination with 10 milligrams/liter amyl-m-cresol", "value": 50, "unit": "milligrams/liter"}, {"measurement": "Minimum Inhibitory Concentration", "setting": "[1]; B. melaninogenicus, in combination with 12.5 milligrams/liter domiphen bromide", "value": 50, "unit": "milligrams/liter"}, {"measurement": "Minimum Inhibitory Concentration", "setting": "[1]; B. melaninogenicus, in combination with 100 milligrams/liter 2, 4-dichloro-alcohol (row with 50 morpholinoamino alcohol HCl)", "value": 50, "unit": "milligrams/liter"}, {"measurement": "Minimum Inhibitory Concentration", "setting": "[1]; B. melaninogenicus, in combination with 100 milligrams/liter 2, 4-dichloro-alcohol (row with 100 morpholinoamino alcohol HCl)", "value": 100, "unit": "milligrams/liter"}, {"measurement": "Minimum Inhibitory Concentration", "setting": "[1]; B. melaninogenicus, in the absence of the dodecyl glycerol", "value": 200, "unit": "milligrams per liter"}]}, {"smiles": "CCCCCc1ccc(C)cc1O", "note": "[amyl-m-cresol, reference compound]", "values": [{"measurement": "Minimum Inhibitory Concentration", "setting": "Streptococcus mutans; [8]", "value": 10, "unit": "milligrams/liter"}, {"measurement": "Minimum Inhibitory Concentration", "setting": "Streptococcus mutans; S. mutans, in combination with 50 milligrams/liter morpholinoamino alcohol HCl, Table XI", "value": 10, "unit": "milligrams/liter"}, {"measurement": "Minimum Inhibitory Concentration", "setting": "Streptococcus mutans; S. mutans, in combination with 100 milligrams/liter morpholinoamino alcohol HCl, Table XI", "value": 10, "unit": "milligrams/liter"}, {"measurement": "Minimum Inhibitory Concentration", "setting": "[1]; [11]", "value": 10, "unit": "milligrams/liter"}, {"measurement": "Minimum Inhibitory Concentration", "setting": "[1]; B. melaninogenicus, in combination with 50 milligrams/liter morpholinoamino alcohol HCl, Table XI", "value": 10, "unit": "milligrams/liter"}, {"measurement": "Minimum Inhibitory Concentration", "setting": "[1]; B. melaninogenicus, in combination with 100 milligrams/liter morpholinoamino alcohol HCl, Table XI", "value": 2.5, "unit": "milligrams/liter"}]}, {"smiles": "CCCCCCCCCCCC[N+](C)(C)CCOc1ccccc1", "note": "[domiphen bromide, reference compound]", "values": [{"measurement": "Minimum Inhibitory Concentration", "setting": "Streptococcus mutans; [6]", "value": 1.0, "unit": "milligrams/liter"}, {"measurement": "Minimum Inhibitory Concentration", "setting": "Streptococcus mutans; S. mutans, in combination with 50 milligrams/liter morpholinoamino alcohol HCl, Table IX", "value": 1.0, "unit": "milligrams/liter"}, {"measurement": "Minimum Inhibitory Concentration", "setting": "Streptococcus mutans; S. mutans, in combination with 100 milligrams/liter morpholinoamino alcohol HCl, Table IX", "value": 0.5, "unit": "milligrams/liter"}, {"measurement": "Minimum Inhibitory Concentration", "setting": "[1]; [9]", "value": 50, "unit": "milligrams/liter"}, {"measurement": "Minimum Inhibitory Concentration", "setting": "[1]; B. melaninogenicus, in combination with 50 milligrams/liter morpholinoamino alcohol HCl, Table IX", "value": 12.5, "unit": "milligrams/liter"}, {"measurement": "Minimum Inhibitory Concentration", "setting": "[1]; B. melaninogenicus, in combination with 100 milligrams/liter morpholinoamino alcohol HCl, Table IX", "value": 6.25, "unit": "milligrams/liter"}]}, {"smiles": "CCCCC(CC)CN1CN(CC(CC)CCCC)CC(C)(N)C1", "note": "(stereo not drawn) [hexitidine, hexetidine, reference compound]", "values": [{"measurement": "Minimum Inhibitory Concentration", "setting": "Streptococcus mutans; [7]", "value": 1.0, "unit": "milligrams/liter"}, {"measurement": "Minimum Inhibitory Concentration", "setting": "Streptococcus mutans; S. mutans, in combination with 50 milligrams/liter morpholinoamino alcohol HCl, Table X", "value": 0.25, "unit": "milligrams/liter"}, {"measurement": "Minimum Inhibitory Concentration", "setting": "Streptococcus mutans; S. mutans, in combination with 100 milligrams/liter morpholinoamino alcohol HCl, Table X", "value": 0.25, "unit": "milligrams/liter"}, {"measurement": "Minimum Inhibitory Concentration", "setting": "[1]; [10]", "value": 1.0, "unit": "milligrams/liter"}, {"measurement": "Minimum Inhibitory Concentration", "setting": "[1]; B. melaninogenicus, in combination with 50 milligrams/liter morpholinoamino alcohol HCl, Table X", "value": 0.25, "unit": "milligrams/liter"}, {"measurement": "Minimum Inhibitory Concentration", "setting": "[1]; B. melaninogenicus, in combination with 100 milligrams/liter morpholinoamino alcohol HCl, Table X", "value": 0.125, "unit": "milligrams/liter"}]}]}
